Reference: patent US10405547B2, “Substituted cyclic amides as herbicides” (FMC Corporation, priority 2015, dated 2019)

How the values were obtained:
Format in all cases: in vivo
[1] = system: ragweed (common ragweed, Ambrosia elatior); assay: Test A postemergence, ragweed; settings: visual injury, 0 to 100 scale (0 no effect, 100 complete control), approximately 10 days
How it was run: (§1)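 Visual injury on a 0 to 100 scale, about 10 days post-spray in the greenhouse. Postemergence plants measured 2–10 cm at one to two leaves; preemergence pots received a directed soil spray. Soil was a loam–sand blend.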

[2] = system: ragweed (common ragweed, Ambrosia elatior); assay: Test A preemergence, ragweed; settings: 0 to 100 scale (0 no effect, 100 complete control)
How it was run: as §1

kochia (Kochia scoparia) [3] = assay: Test A postemergence, kochia; settings: visual injury, 0 to 100 scale (0 no effect, 100 complete control), approximately 10 days
How it was run: as §1

[4] = system: barnyardgrass (Echinochloa crus-galli); assay: Test A preemergence, barnyardgrass; settings: 0 to 100 scale (0 no effect, 100 complete control)
How it was run: as §1

[5] = system: ducksalad (Heteranthera limosa); assay: Test B flooded paddy test, ducksalad; settings: 250 g ai/ha, applied to paddy water, visual rating after 13 to 15 days, scale 0 (no effect) to 100 (complete control)
Excerpt: (§2) At time of treatment, test pots were flooded to 3 cm above the soil surface, treated by application of test compounds directly to the paddy water, and then maintained at that water depth for the duration of the test. Treated plants and controls were maintained in a greenhouse for 13 to 15 days, after which time all species were compared to controls and visually evaluated. […] A dash (-) response means no test result.

kochia (Kochia scoparia) [6] = assay: Test A preemergence, kochia; settings: 0 to 100 scale (0 no effect, 100 complete control)
How it was run: as §1

[7] = system: foxtail, giant (Setaria faberii); assay: Test A postemergence, giant foxtail; settings: visual injury, 0 to 100 scale (0 no effect, 100 complete control), approximately 10 days
How it was run: as §1

[8] = system: galium (catchweed bedstraw, Galium aparine); assay: Test A postemergence, galium; settings: visual injury, 0 to 100 scale (0 no effect, 100 complete control), approximately 10 days
How it was run: as §1

rice (Oryza sativa) = assay: Test B flooded paddy test, rice; settings: 250 g ai/ha, applied to paddy water, visual rating after 13 to 15 days, scale 0 (no effect) to 100 (complete control)
Excerpt: as §2

[9] = system: foxtail, giant (Setaria faberii); assay: Test A preemergence, giant foxtail; settings: 0 to 100 scale (0 no effect, 100 complete control)
How it was run: as §1

[10] = system: ryegrass, Italian (Lolium multiflorum); assay: Test A postemergence, Italian ryegrass; settings: visual injury, 0 to 100 scale (0 no effect, 100 complete control), approximately 10 days
How it was run: as §1

[11] = system: pigweed (Amaranthus retroflexus); assay: Test A preemergence, pigweed; settings: 0 to 100 scale (0 no effect, 100 complete control)
How it was run: as §1

[12] = system: wheat (Triticum aestivum); assay: Test A postemergence, wheat; settings: visual injury, 0 to 100 scale (0 no effect, 100 complete control), approximately 10 days
How it was run: as §1

[13] = system: blackgrass (Alopecurus myosuroides); assay: Test A postemergence, blackgrass; settings: visual injury, 0 to 100 scale (0 no effect, 100 complete control), approximately 10 days
How it was run: as §1

[14] = system: barnyardgrass (Echinochloa crus-galli); assay: Test A postemergence, barnyardgrass; settings: visual injury, 0 to 100 scale (0 no effect, 100 complete control), approximately 10 days
How it was run: as §1

[15] = system: barnyardgrass (Echinochloa crus-galli); assay: Test B flooded paddy test, barnyardgrass; settings: 250 g ai/ha, applied to paddy water, visual rating after 13 to 15 days, scale 0 (no effect) to 100 (complete control)
Excerpt: as §2

corn (Zea mays) = assay: Test A postemergence, corn; settings: visual injury, 0 to 100 scale (0 no effect, 100 complete control), approximately 10 days
How it was run: as §1

[16] = system: ryegrass, Italian (Lolium multiflorum); assay: Test A preemergence, Italian ryegrass; settings: 0 to 100 scale (0 no effect, 100 complete control)
How it was run: as §1

[17] = system: sedge, umbrella (small-flower umbrella sedge, Cyperus difformis); assay: Test B flooded paddy test, umbrella sedge; settings: 250 g ai/ha, applied to paddy water, visual rating after 13 to 15 days, scale 0 (no effect) to 100 (complete control)
Excerpt: as §2

[18] = system: pigweed (Amaranthus retroflexus); assay: Test A postemergence, pigweed; settings: visual injury, 0 to 100 scale (0 no effect, 100 complete control), approximately 10 days
How it was run: as §1

SMILES	Plant response rating, Ragweed ([1]; 125 g ai/ha)	Plant response rating, Ragweed ([1]; 500 g ai/ha)	Plant response rating, Ragweed ([2]; 125 g ai/ha)	Plant response rating, Ragweed ([2]; 500 g ai/ha)	Plant response rating, Barnyardgrass ([4]; 125 g ai/ha)	Plant response rating, Ducksalad (Flood) [5]	Plant response rating, Kochia (kochia (Kochia scoparia) [6]; 125 g ai/ha)	Plant response rating, Kochia (kochia (Kochia scoparia) [6]; 500 g ai/ha)	Plant response rating, Foxtail, Giant ([7]; 125 g ai/ha)	Plant response rating, Foxtail, Giant ([7]; 500 g ai/ha)	Plant response rating, Galium ([8]; 125 g ai/ha)	Plant response rating, Galium ([8]; 500 g ai/ha)	Plant response rating, Rice (Flood) (rice (Oryza sativa))	Plant response rating, Foxtail, Giant ([9]; 125 g ai/ha)	Plant response rating, Foxtail, Giant ([9]; 500 g ai/ha)	Plant response rating, Ryegrass, Italian ([10]; 125 g ai/ha)	Plant response rating, Ryegrass, Italian ([10]; 500 g ai/ha)	Plant response rating, Pigweed ([11]; 125 g ai/ha)	Plant response rating, Pigweed ([11]; 500 g ai/ha)	Plant response rating, Wheat ([12]; 125 g ai/ha)	other results
CN1CC(c2cccc(Sc3ccccc3)c2)C(C(=O)Nc2cccc(F)c2F)C1=O (single isomer, unassigned) [Compound 51]	0	20	0	0	20	40	20	50	10	40	40	50	0	90	90	20	30	0	0	0	Plant response rating, Kochia (kochia (Kochia scoparia) [3]; 125 g ai/ha): 0; Plant response rating, Kochia (kochia (Kochia scoparia) [3]; 500 g ai/ha): 30; Plant response rating, Wheat ([12]; 500 g ai/ha): 20; Plant response rating, Blackgrass ([13]; 125 g ai/ha): 0; Plant response rating, Blackgrass ([13]; 500 g ai/ha): 0; Plant response rating, Barnyardgrass ([14]; 125 g ai/ha): 0; Plant response rating, Barnyardgrass ([14]; 500 g ai/ha): 30; Plant response rating, Barnyardgrass (Flood) [15]: 0; Plant response rating, Corn (corn (Zea mays); 125 g ai/ha): 0; Plant response rating, Corn (corn (Zea mays); 500 g ai/ha): 30; Plant response rating, Ryegrass, Italian ([16]; 125 g ai/ha): 0; Plant response rating, Ryegrass, Italian ([16]; 500 g ai/ha): 20; Plant response rating, Sedge, Umbrella (Flood) [17]: 0; Plant response rating, Pigweed ([18]; 125 g ai/ha): 0; Plant response rating, Pigweed ([18]; 500 g ai/ha): 0
O=C1NCC(c2cccc(OCC3CC3)c2)C1C(=O)Nc1cccc(F)c1F (centres unmarked) [Compound 12]	30	30	0	0	90	20	0	40	70	90	0	50	0	90	90	20	50	0	30	0	Plant response rating, Kochia (kochia (Kochia scoparia) [3]; 125 g ai/ha): 0; Plant response rating, Kochia (kochia (Kochia scoparia) [3]; 500 g ai/ha): 20; Plant response rating, Barnyardgrass ([4]; 500 g ai/ha): 90; Plant response rating, Wheat ([12]; 500 g ai/ha): 50; Plant response rating, Blackgrass ([13]; 125 g ai/ha): 0; Plant response rating, Blackgrass ([13]; 500 g ai/ha): 60; Plant response rating, Barnyardgrass ([14]; 125 g ai/ha): 70; Plant response rating, Barnyardgrass ([14]; 500 g ai/ha): 90; Plant response rating, Barnyardgrass (Flood) [15]: 0; Plant response rating, Corn (corn (Zea mays); 125 g ai/ha): 0; Plant response rating, Corn (corn (Zea mays); 500 g ai/ha): 60; Plant response rating, Ryegrass, Italian ([16]; 125 g ai/ha): 0; Plant response rating, Ryegrass, Italian ([16]; 500 g ai/ha): 20; Plant response rating, Sedge, Umbrella (Flood) [17]: 0; Plant response rating, Pigweed ([18]; 125 g ai/ha): 0; Plant response rating, Pigweed ([18]; 500 g ai/ha): 20
CN1CC(c2cccc(Oc3ccc(F)cn3)c2)C(C(=O)Nc2ccccc2F)C1=O (single isomer, unassigned) [Compound 60]	0	40	40	50	90	100	70	80	80	90	30	60	0	90	90	30	50	60	50	0	Plant response rating, Barnyardgrass ([4]; 500 g ai/ha): 90; Plant response rating, Wheat ([12]; 500 g ai/ha): 70; Plant response rating, Blackgrass ([13]; 125 g ai/ha): 0; Plant response rating, Blackgrass ([13]; 500 g ai/ha): 30; Plant response rating, Barnyardgrass ([14]; 125 g ai/ha): 70; Plant response rating, Barnyardgrass ([14]; 500 g ai/ha): 90; Plant response rating, Barnyardgrass (Flood) [15]: 65; Plant response rating, Corn (corn (Zea mays); 125 g ai/ha): 30; Plant response rating, Corn (corn (Zea mays); 500 g ai/ha): 50; Plant response rating, Ryegrass, Italian ([16]; 125 g ai/ha): 20; Plant response rating, Ryegrass, Italian ([16]; 500 g ai/ha): 70; Plant response rating, Sedge, Umbrella (Flood) [17]: 0; Plant response rating, Pigweed ([18]; 125 g ai/ha): 0; Plant response rating, Pigweed ([18]; 500 g ai/ha): 40
CN1CC(c2cccc(Sc3ccccc3)c2)C(C(=O)Nc2ccccc2F)C1=O (single isomer, unassigned) [Compound 50]	0	0	0	30	0	70	0	30	50	70	0	40	0	90	90	0	0	20	20	0	Plant response rating, Barnyardgrass ([4]; 500 g ai/ha): 40; Plant response rating, Wheat ([12]; 500 g ai/ha): 0; Plant response rating, Blackgrass ([13]; 125 g ai/ha): 0; Plant response rating, Blackgrass ([13]; 500 g ai/ha): 0; Plant response rating, Barnyardgrass ([14]; 125 g ai/ha): 0; Plant response rating, Barnyardgrass ([14]; 500 g ai/ha): 30; Plant response rating, Barnyardgrass (Flood) [15]: 0; Plant response rating, Corn (corn (Zea mays); 125 g ai/ha): 0; Plant response rating, Corn (corn (Zea mays); 500 g ai/ha): 20; Plant response rating, Ryegrass, Italian ([16]; 125 g ai/ha): 0; Plant response rating, Ryegrass, Italian ([16]; 500 g ai/ha): 0; Plant response rating, Sedge, Umbrella (Flood) [17]: 0; Plant response rating, Pigweed ([18]; 125 g ai/ha): 0; Plant response rating, Pigweed ([18]; 500 g ai/ha): 30
O=C1NCC(c2cccc(Oc3ccc(C(F)(F)F)cn3)c2)C1C(=O)Nc1ccccc1F (single isomer, unassigned) [Compound 62]	0	40	0	50	90	100	30	60	80	90	30	60	20	90	90	0	30	30	50	0	Plant response rating, Barnyardgrass ([4]; 500 g ai/ha): 90; Plant response rating, Wheat ([12]; 500 g ai/ha): 30; Plant response rating, Blackgrass ([13]; 125 g ai/ha): 0; Plant response rating, Blackgrass ([13]; 500 g ai/ha): 30; Plant response rating, Barnyardgrass ([14]; 125 g ai/ha): 70; Plant response rating, Barnyardgrass ([14]; 500 g ai/ha): 90; Plant response rating, Barnyardgrass (Flood) [15]: 40; Plant response rating, Corn (corn (Zea mays); 125 g ai/ha): 30; Plant response rating, Corn (corn (Zea mays); 500 g ai/ha): 30; Plant response rating, Ryegrass, Italian ([16]; 125 g ai/ha): 0; Plant response rating, Ryegrass, Italian ([16]; 500 g ai/ha): 20; Plant response rating, Sedge, Umbrella (Flood) [17]: 0; Plant response rating, Pigweed ([18]; 125 g ai/ha): 0; Plant response rating, Pigweed ([18]; 500 g ai/ha): 30
